What was measured:
NLRP3 [1] = biological target: T1, NLRP3 (Mus musculus, UniProt Q8R4B8); assay: Inhibition of canonical NLRP3 activation (LPS+ATP/Nig) in J774A.1 cells, IL-1β release by ELISA, single concentration; assay type: cell-based; parameters: The mouse macrophage cell line J774A.1 was used, and LPS was used as the first signal; host or cells: J774A.1 mouse monocyte-macrophage cell line; details: J774.A1, 1 µM compound, LPS + 5 mM ATP or 10 µM Nig, compared with the positive control, read-out: inhibition of IL-1β release
T1 sequence (Q8R4B8 whole entry): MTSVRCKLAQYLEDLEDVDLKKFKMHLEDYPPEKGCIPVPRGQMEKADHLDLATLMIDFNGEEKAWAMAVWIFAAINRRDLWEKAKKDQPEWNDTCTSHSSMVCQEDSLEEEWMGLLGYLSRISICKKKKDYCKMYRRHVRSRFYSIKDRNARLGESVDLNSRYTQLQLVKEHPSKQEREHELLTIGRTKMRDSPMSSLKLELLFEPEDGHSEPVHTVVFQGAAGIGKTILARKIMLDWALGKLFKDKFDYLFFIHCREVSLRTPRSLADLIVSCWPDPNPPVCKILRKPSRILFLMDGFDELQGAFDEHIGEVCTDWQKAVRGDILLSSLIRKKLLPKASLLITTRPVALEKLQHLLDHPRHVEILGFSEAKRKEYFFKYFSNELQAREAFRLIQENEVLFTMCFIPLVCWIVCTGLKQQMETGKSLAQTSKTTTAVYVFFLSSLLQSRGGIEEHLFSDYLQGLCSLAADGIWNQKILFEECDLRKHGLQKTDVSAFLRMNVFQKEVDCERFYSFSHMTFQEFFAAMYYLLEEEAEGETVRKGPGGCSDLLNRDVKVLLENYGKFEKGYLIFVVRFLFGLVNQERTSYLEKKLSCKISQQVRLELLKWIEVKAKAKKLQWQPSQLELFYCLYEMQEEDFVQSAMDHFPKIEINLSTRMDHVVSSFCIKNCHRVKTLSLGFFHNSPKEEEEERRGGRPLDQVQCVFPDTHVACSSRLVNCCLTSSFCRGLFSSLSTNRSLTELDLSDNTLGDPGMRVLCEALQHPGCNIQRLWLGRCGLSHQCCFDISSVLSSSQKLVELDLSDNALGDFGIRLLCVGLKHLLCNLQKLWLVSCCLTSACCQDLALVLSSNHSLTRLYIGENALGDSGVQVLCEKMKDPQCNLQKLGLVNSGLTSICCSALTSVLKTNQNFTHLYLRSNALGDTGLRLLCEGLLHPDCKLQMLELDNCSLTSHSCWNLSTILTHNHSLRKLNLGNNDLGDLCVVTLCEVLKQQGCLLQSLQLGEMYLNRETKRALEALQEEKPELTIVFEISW
Protocol: J774A.1 cells were plated in a 48-well plate at a density of 1.0×10^6 cells/mL, with 300 µL per well. Subsequently, NLRP3 was activated using LPS+5 mM ATP (adenosine triphosphate) or 10 µM Nig (nigericin). […] ATP was purchased from Sigma, Cat. No.: L2654. Nig was purchased from Shanghai Yuanye Bio-Technology Co., Ltd., Cat. No.: S45490.
Experimental groups: a negative control group, an LPS-alone incubation control group, an LPS+ATP or +Nig positive control group, and an example compound experimental group.
After the plated J774A.1 cells adhering to the plate, the culture medium was replaced. For all the groups except the negative control group, the culture medium was completely replaced with cell culture medium containing 1 µg/mL LPS. The negative control group received cell culture medium. Then, all the groups were incubated overnight. 18 h later, the culture medium was replaced again. The culture medium of the example compound experimental group was completely replaced with cell culture medium containing the compounds; while the negative control group, the LPS-alone incubation control group, and the LPS+ATP/Nig positive control group received cell culture medium. 1 h later, the culture mediums of the LPS+ATP/Nig positive control group and the example compound experimental group were completely replaced with cell culture medium containing 5 mM ATP or 10 µM Nig. 1 h later, the cell supernatants were collected for IL-1β detection.
Therefore, the relative change in the amount of IL-1β release may directly reflect NLRP3 inhibitory effect.

[2] = Mouse pharmacokinetics after intravenous administration (plasma and brain, LC-MS); assay type: in vivo; details: C57 mice, intravenous 5 mg/kg; for concentration at 120 min: brain after cardiac perfusion, read-out: brain drug concentration at 120 min; for half-life / AUC: plasma; for AUC: read-out: area under the curve (AUC) from 1 to 120 min
Protocol: C57 mice were administered intravenously, at a dosage concentration of 5 mg/kg in each group. Retro-orbital blood collection was performed on the mice at 1 min, 30 min, 1 h, and 2 h post-dosing. The collected blood was centrifuged at 3000 rpm for 10 min at 4 °C to obtain plasma. Acetonitrile was added at a 1:3 volume ratio of plasma: acetonitrile to precipitate proteins. After centrifugation, the supernatant was collected and filtered. The concentration of the compound was detected using LC-MS (Agilent 1260-G6125, SIM mode). In addition, 2 h after drug injection, the mice were subjected to cardiac perfusion and then their brains were harvested. Following tissue homogenization and centrifugation, the supernatant was collected. Acetonitrile was added at a 1:3 volume ratio of supernatant: acetonitrile to precipitate proteins. After centrifugation, the supernatant was collected and filtered. The concentration of the compound was detected using LC-MS (Agilent 1260-G6125, SIM mode).
Experimental groups: a vehicle control group, and a dosing group.

NLRP3 [3] = biological target: T1, NLRP3; assay: Inhibition of APOE peptide-induced NLRP3 activation in J774A.1 cells, IL-1β release; assay type: cell-based; parameters: The mouse macrophage cell line J774A.1 was used, and LPS was used as the first signal; host or cells: J774A.1 mouse monocyte-macrophage cell line; details: J774.A1, 10 µM compound, 30 µg/mL APOE peptide
Protocol: J774A.1 cells were plated in a 48-well plate at a density of 1.0×10^6 cells/mL, with 300 µL per well. Subsequently, NLRP3 was activated by APOE peptide. The cell culture medium comprises: DMEM (brand: Gibco, Cat. No.: C12430500) + 10% fetal bovine serum (brand: Gibco, Cat. No.: 10099-141) + 1% sodium pyruvate (brand: Gibco, Cat. No.: 11360-070) + 1% penicillin-streptomycin solution (brand: Solarbio, Cat. No.: P1400). The J774A.1 mouse monocyte-macrophage cell line was purchased from the Cell Resource Center of the Institute of Basic Medical Sciences of Chinese Academy of Medical Sciences (Resource No. 1101MOU-PUMC000222). APOE2/3 peptide 1-151 was obtained through recombinant protein expression and purification by Biocells (Beijing) Biotech Co., Ltd. The procedures were as follows: the sequence (SEQ ID NO: 1) shown below was inserted into the pET-28A plasmid and transformed into BL-21(DE3) expression strain; the expression of target protein was induced with IPTG at a low temperature; after collecting the bacteria via centrifugation, ultrasonic disruption was performed; and after centrifugation, the supernatant was purified by nickel ion affinity chromatography (AKTA pure), and then the product was concentrated by ultrafiltration and identified by BCA+protein electrophoresis. Sequence: [formula]
Experimental groups: a negative control group, an APOE treatment control group, and an example compound experimental group.
After the plated J774A.1 cells adhering to the plate, the culture medium was replaced. The culture medium of the APOE treatment control group was replaced with cell culture medium containing 30 µg/mL APOE peptide, the culture medium of the example compound experimental group was replaced with culture medium containing 30 µg/mL APOE peptide combined with the compounds, and the negative control group received cell culture medium. Then, all the groups were incubated overnight. 18 h later, the cell supernatants were collected for IL-1β detection.
Activation of NLRP3 by APOE peptide will result in release of mature IL-1β, and the release can be inhibited by NLRP3 inhibitors. Therefore, the relative change in the amount of IL-1β release may directly reflect NLRP3 inhibitory effect.
In this experimental example, effective inhibition refers to a reduction of 70% or more in the release amount, compared with the release amount of the positive control minus the negative control.

SMILES | inhibition at 1 µM (NLRP3 [1]) [%] | concentration at 120 min [2] [ng/mL] | half-life [2] [h] | AUC [2] [ng·h/mL] | inhibition at 10 µM (NLRP3 [3]) [%]
COc1ccc(S(=O)(=O)NC(=O)Nc2c3c(cc4c2CCC4)CCC3)cc1CN(C)C [Example 3, 3-((dimethylamino)methyl)-N-((1,2,3,5,6,7-hexahydro-s-indacen-4-yl)carbamoyl)-4-methoxybenzenesulfonamide] | > 80 | 35500 | 1.05 | 257000 | ≥ 70
CN(C)Cc1cc(S(=O)(=O)NC(=O)Nc2c3c(cc4c2CCC4)CCC3)ccc1O [Example 5, 3-((dimethylamino)methyl)-N-((1,2,3,5,6,7-hexahydro-s-indacen-4-yl)carbamoyl)-4-hydroxybenzenesulfonamide] | > 80 | 3870 | 2.3 | 67400 | ≥ 70
CN(C)Cc1cccc(S(=O)(=O)NC(=O)Nc2c3c(cc4c2CCC4)CCC3)c1N [Example 19, 2-amino-3-((dimethylamino)methyl)-N-((1,2,3,5,6,7-hexahydro-s-indacen-4-yl)carbamoyl)benzenesulfonamide] | > 80 | 242 | 2.32 | 14700 | ≥ 70
